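A five-concentration, 48-hour dose response in 96-well plates underlies each endpoint, interpolated linearly between surrounding concentrations. GI50: concentration for 50% inhibition of growth.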 The source made the active and inactive calls. Rule as the data show it: active = GI50 up to about 1.1 µM and inactive = higher.
Legend:
Assay in all cases: DTP human tumour cell line panel, 48 h
HL-60 = system: HL-60
CAKI-1 = system: CAKI-1
HT-29 = system: HT-29
SN12C = system: SN12C
UACC-62 = system: UACC-62
SR = system: SR
TK-10 = system: TK-10
RXF 393 = system: RXF 393
OVCAR-8 = system: OVCAR-8
SK-MEL-5 = system: SK-MEL-5
A549 = system: A549
BT-549 = system: BT-549
NCI-H226 = system: NCI-H226
MDA-MB-231 = system: MDA-MB-231
IGROV-1 = system: IGROV-1
SK-MEL-28 = system: SK-MEL-28
EKVX = system: EKVX
HCT-15 = system: HCT-15
OVCAR-4 = system: OVCAR-4
NCI-H460 = system: NCI-H460

| SMILES | GI50 (HL-60) | GI50 (CAKI-1) | GI50 (HT-29) | GI50 (SN12C) | GI50 (UACC-62) | GI50 (SR) | GI50 (TK-10) | GI50 (RXF 393) | GI50 (OVCAR-8) | GI50 (SK-MEL-5) | GI50 (A549) | GI50 (BT-549) | GI50 (NCI-H226) | GI50 (MDA-MB-231) | GI50 (IGROV-1) | GI50 (SK-MEL-28) | GI50 (EKVX) | GI50 (HCT-15) [µM] | GI50 (OVCAR-4) | GI50 (NCI-H460) |
| --- | --- | --- | --- | --- | --- | --- | --- | --- | --- | --- | --- | --- | --- | --- | --- | --- | --- | --- | --- | --- |
| O=S(=O)(O)c1ccc2c(/N=N/c3cccc4ccccc34)c(O)ccc2c1 | > 100 µM (inactive) | > 100 µM (inactive) | > 100 µM (inactive) | > 100 µM (inactive) | > 100 µM (inactive) | > 100 µM (inactive) | > 100 µM (inactive) | > 100 µM (inactive) | > 100 µM (inactive) | > 100 µM (inactive) | > 100 µM (inactive) | > 100 µM (inactive) | > 100 µM (inactive) | > 100 µM (inactive) | > 100 µM (inactive) | > 100 µM (inactive) | > 100 µM (inactive) | > 100 | > 100 µM (inactive) |  |
| CCCC(=O)NC(C(=O)OCC)(N1CCOCC1)C(F)(F)F (stereo not drawn) | > 100 µM (inactive) | > 100 µM (inactive) | > 100 µM (inactive) | > 100 µM (inactive) | > 100 µM (inactive) | > 100 µM (inactive) | > 100 µM (inactive) | > 100 µM (inactive) | > 100 µM (inactive) | > 100 µM (inactive) | > 100 µM (inactive) | > 100 µM (inactive) | > 100 µM (inactive) | > 100 µM (inactive) | > 100 µM (inactive) | > 100 µM (inactive) | > 100 µM (inactive) | > 100 | > 100 µM (inactive) |  |
| O=c1oc2ccccc2cc1/C=N/N1C(=S)N(c2ccccc2)C(=N\c2ccccc2)/C1=N/c1ccccc1 |  | > 100 µM (inactive) | > 10 µM (inactive) | > 100 µM (inactive) | 98.2 µM (inactive) | > 100 µM (inactive) | > 100 µM (inactive) | 26.4 µM (inactive) | 34.6 µM (inactive) | 87.7 µM (inactive) | > 100 µM (inactive) | > 100 µM (inactive) | > 100 µM (inactive) | > 100 µM (inactive) | > 100 µM (inactive) | > 100 µM (inactive) | > 100 µM (inactive) | > 100 |  | 47.6 µM (inactive) |
| Oc1ccc2c3c1OC1c4[nH]c5c(c4CC4(O)C(C2)N(CC2CC2)CC[C@]314)CC1(O)C2Cc3ccc(O)c4c3[C@@]1(CCN2CC1CC1)C5O4 (stereo partly drawn) | 21.9 µM (inactive) | > 100 µM (inactive) | 20 µM (inactive) | 35 µM (inactive) | 20.4 µM (inactive) | 27.4 µM (inactive) | 21.2 µM (inactive) | 18.1 µM (inactive) | 51.9 µM (inactive) | 44 µM (inactive) | 18.6 µM (inactive) | > 100 µM (inactive) | 27.8 µM (inactive) | 24.4 µM (inactive) | > 100 µM (inactive) | 20.1 µM (inactive) | 35.6 µM (inactive) | > 100 | 29.8 µM (inactive) |  |
| CCn1c(=O)c2cn[nH]c2n(C)c1=O |  | > 100 µM (inactive) | > 100 µM (inactive) | > 100 µM (inactive) | > 100 µM (inactive) | > 100 µM (inactive) | > 100 µM (inactive) | > 100 µM (inactive) | > 100 µM (inactive) | > 100 µM (inactive) | > 100 µM (inactive) | > 100 µM (inactive) | > 100 µM (inactive) | > 100 µM (inactive) | 66.7 µM (inactive) | > 100 µM (inactive) | > 100 µM (inactive) | > 100 | > 100 µM (inactive) | > 100 µM (inactive) |
| c1ccc(C(CCN2CCCC2)c2ccccn2)cc1 (stereo not drawn) |  | > 100 µM (inactive) | > 100 µM (inactive) | > 100 µM (inactive) | > 100 µM (inactive) | < 0.01 µM (active) | > 100 µM (inactive) | > 100 µM (inactive) | > 100 µM (inactive) | > 100 µM (inactive) | > 100 µM (inactive) | > 100 µM (inactive) | > 100 µM (inactive) | > 100 µM (inactive) | > 100 µM (inactive) | > 100 µM (inactive) | > 100 µM (inactive) | > 100 | > 100 µM (inactive) | > 100 µM (inactive) |

Reference: ChEMBL document CHEMBL1201862, “PubChem BioAssay data set” (2004)
